US20250101026A1, “Functionalized Allopurinol Derivatives for Treatment of Alzheimer’s Disease” (BOARD OF REGENTS OF THE UNIVERSITY OF NEBRASKA, priority 2022, published 2025)
“Also recorded” adds a separate entry of the source. Like-named read-outs stand apart in the source and are kept apart here.

What was measured:
SH-SY5Y cells [1] = assay: Aβ-induced toxicity in SH-SY5Y cells, MTS assay; assay type: cell-based, human; conditions: 1 μM
Method: (§1) Cell Culture. The cell line SH-SY5Y was cultured in DMEM/F12 media supplemented with 10% fetal bovine serum, 1% penicillin-streptomycin and maintained as monolayer cultures in a humidified atmosphere containing 5% CO2 at 37° C.^42 All cell lines were authenticated via short tandem repeat analysis and tested for mycoplasma using the a commercial mycoplasma detection kit as per the manufacturer's instructions, showing no contamination. Where indicated, cells were also cultured in DMEM/low glucose media. All compounds were diluted to 20 mM solution in DMSO and were serially diluted in cell culture media for cell treatments to a final concentration range of 0.01 to 100 μM, maintaining the final DMSO concentration at less than 1%. Positive control compound HupA was serially diluted in a similar fashion as the synthesized compounds.
(§2) Amyloid Preparation. The peptide Aβ1-42, referred to as “Aβ”, was obtained from a commercial source. The oligomers of Aβ were prepared using an established method,^43 Aβ peptide was resuspended in 0.5 mM NaOH at a concentration of […] and stored at −80° C. For use in cell cultures, the stock solution was incubated at 37° C. for 5-7 days. Before use, the peptide was diluted to 25 μM in DMEM/low glucose media.
Cell Viability Assays. The SH-SY5Y cells were plated at a density of 50,000 cells/well in 96-well plates and allowed to adapt overnight in a humidified atmosphere containing 5% CO2 at 37° C. The cells were pretreated (24 hours) with the test compound and exchanged to a serum-free DMEM/low glucose media, prior to incubation with 25 μM of Aβ. Cell viability was measured after 48 hours using commercial MTS assay or lactate dehydrogenase (LDH) cytotoxicity assay.
Employing human neuroblastoma SH-SY5Y ‘neuron-like’ cells, known to express ABAD,^20 experimental conditions are described herein that result in reproducible loss of 65% cell viability upon treatment with 25 μM Aβ after 48-hour incubation (FIG. 4A). Compound 1 (AG18051) and its analog 14b were screened for toxic effects in the SH-SY5Y cell lines.
HupA at 10 μM concentration provided 74% protection from Aβ-induced toxicity. […] Again, synthesized compound 14b at 1 μM, afforded greater protection than HupA at 10 μM concentration.

[2] = test system: 5XFAD primary cortical neurons; assay: Respiration measurements in 5XFAD cortical neurons; assay type: cell-based, mouse; conditions: 10 μM and 50 μM, 48 hours
Method: Respiration Measurements (5XFAD cortical neurons). Primary cortical neurons were plated on poly-D-lysine-coated Seahorse XF24 cell culture microplates at a density of 3×10^4 cells/well and cultured for 14 days. At DIV (day in vitro) 12, neurons were treated with indicated compound for 48 hours. On day of the experiment, cells were washed three times and pre-incubated for 1 h in Assay Media with 10 mM Glucose, 1 mM Pyruvate, and 2 mM L-Glutamine. Measurement of intact cellular respiration was performed using an analyzer and a commercial Mito Stress Test Kit. Respiration was measured under basal conditions, and in response to 1.5 μM oligomycin followed by the addition of the […] (FCCP, 1 μM) which induces maximal OCR (Oxygen Consumption Rate). Finally, respiration was stopped by adding the electron transport chain inhibitors rotenone and antimycin A (0.5 μM). Values were normalized to cellular protein levels.
To obtain proof-of-concept protective effect of 14b in an ex vivo mouse model of AD we isolated primary mouse cortical neurons from the 5XFAD Alzheimer's model mouse (FIGS. 6A-6C). 5XFAD neurons were cultured for 10 days and then treated with 14b at 10 or 50 μM for 48 hours and then stained with the mitochondrial outer membrane protein TOM20 to evaluate mitochondrial morphological changes (FIG. 6A). […]

SH-SY5Y cells [3] = assay: Cell viability of SH-SY5Y cells with compound alone; assay type: cell-based, human; conditions: up to 100 μM
Method: as §1
Cell Viability Assays. The SH-SY5Y cells were plated at a density of 50,000 cells/well in 96-well plates and allowed to adapt overnight in a humidified atmosphere containing 5% CO2 at 37° C. The cells were pretreated (24 hours) with the test compound and exchanged to a serum-free DMEM/low glucose media, prior to incubation with 25 μM of Aβ. Cell viability was measured after 48 hours using commercial MTS assay or lactate dehydrogenase (LDH) cytotoxicity assay. […]

Aβ-ABAD PPI = target: T1, Aβ-ABAD PPI (Homo sapiens, UniProt Q99714); assay: Estradiol ELISA assay: rescue of Aβ-induced reduction of estradiol levels in SH-SY5Y cells; assay type: cell-based; conditions: compounds 24 hours then Aβ 72 hours
T1 construct: wildtype human SH-SY5Y cell lines, which are known to express ABAD; endogenous in cells; host or cells: SH-SY5Y
T1 sequence (Q99714 2-261 limits assumed): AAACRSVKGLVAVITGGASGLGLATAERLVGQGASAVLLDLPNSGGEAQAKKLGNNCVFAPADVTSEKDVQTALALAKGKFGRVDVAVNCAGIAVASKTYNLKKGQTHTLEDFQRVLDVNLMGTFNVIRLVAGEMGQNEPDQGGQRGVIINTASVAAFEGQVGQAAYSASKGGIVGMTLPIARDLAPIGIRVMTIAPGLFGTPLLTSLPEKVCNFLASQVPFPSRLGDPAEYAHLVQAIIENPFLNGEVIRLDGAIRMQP
Method: as §1, §2
Estradiol ELISA assay. SH-SY5Y cells were treated with compounds (24 hours), followed by Aβ (72 hours) in a similar fashion to that employed in the cell viability assays, the cell culture medium was collected, and cells were lysed using RIPA buffer and protease inhibitor cocktail, then proteins were quantified via BCA assay. An estradiol assay was performed. In brief, the plate was loaded with samples, along with the estradiol tracer and the specific antiserum to estradiol and incubated for one hour at room temperature. After five washing steps, Ellman's Reagent was added, and the plate developed for 60 minutes with gentle shaking at room temperature. The calculated estradiol concentration was normalized to the total protein content of the samples.
Statistical Analyses. The IC50 values of each compound were acquired from a single experiment with each inhibitor concentration run in triplicate and the statistical significance was calculated using the Student t test, or a one-way or two-way ANOVA. A P value of <0.05 was considered statistically significant. IC50 values were calculated.
To determine the effect of Aβ on estradiol production, and ABAD's role in this process, wildtype human SH-SY5Y cell lines, which are known to express ABAD, were incubated for 72 hours with Aβ.^20 Estradiol levels in the cell lysate were measured with a commercial ELISA-based estradiol assay. […] To determine if AG18051 treatment affects Aβ-induced reduction of estradiol levels, 0.1 or 1 μM AG18051 was preincubated in SH-SY5Y cells for 24 hours prior to Aβ exposure. […] AG18051 at 1 μM protected SH-SY5Y cells from Aβ-induced reduction of estradiol production to a greater significance than HupA. This confirms literature reports that AG18051 is neuroprotective and that it exerts this effect by ameliorating Aβ-induced reduction of estradiol production by ABAD.^20, 23
This assay methodology allows direct screening of compound activity in the presence of Aβ and provides direct evidence of the ability of compounds to rescue Aβ-induced reduction of estradiol production by ABAD. To measure the effect of AG18051 alone in SH-SY5Y cell lines, a 0.01-100 μM dose-response range was tested, and their effect on estradiol levels (FIG. 2B). […] To evaluate the effect of the increase of AG18051 dose in maintaining estradiol levels reduced by Aβ, AG18051 was tested in increasing concentrations in the presence of Aβ (FIG. 2B).

O=C(C(c1ccccc1)n1cnc2[nH]ncc2c1=S)N1CCC(O)CC1 (stereo not drawn) [Compound 14b, 1-(4-hydroxypiperidin-1-yl)-2-phenyl-2-(4-thioxo-1,4-dihydro-5H-pyrazolo[3,4-d]pyrimidin-5-yl)ethan-1-one]
rescue of Aβ-induced reduction of cell viability (MTS assay) (SH-SY5Y cells [1]): significantly rescued
protection of cell viability (MTS assay) (SH-SY5Y cells [1]; pretreated 24 hrs, then 25 μM Aβ 48 hrs): 82%
mitochondrial respiration (oxygen consumption rate) rescue [2]: trend to rescue
toxicity to reduce cell viability (SH-SY5Y cells [3]): no toxicity; also recorded: non-toxic
IC50 (Aβ-ABAD PPI; amelioration of Aβ-induced reduction of estradiol levels, read-out: IC50 (estradiol assay)): 740 nM
IC50 (Aβ-ABAD PPI; read-out: IC50 (estradiol assay), unit inferred): 738 ± 105 nM
